Results on 1 compound are retold here after US10286000B2, “Retinoid X receptor-gamma agonists and retinoid X receptor-alpha antagonists for treatment of cancer” (St. Jude Children's Research Hospital, Inc., priority 2013, dated 2019).

Data set [1] has as its system HT29 xenografts, lung metastasis. The data set can be described thus: lung metastasis model using HT29 cells. The class given is in vivo, NSG mice. The following applies: i.p. twice a week for 3 weeks. Here is the method: The number of cells that invaded the ECM was determined after 24 h. Data are expressed as percentage change in tumor invasion relative to that of DMSO-treated cells (n=3). (D) Wound healing by DMSO- and SPIR-treated HCT116, HT29, and CAL27 cells was compared. Data are calculated as the percentage change in distance of migration relative to that of DMSO-treated cells (n=3). […] Tumor xenografts and lung metastases were detected by bioluminescence imaging on day 25. Data are shown as the average total flux (photons/second)±standard deviation (n=8). (F) The lung metastases (arrows) were confirmed by examining lung tissue sections. * P≤0.05, ** P<0.01, *** P<0.005, **** P<0.0001.
Luciferase-expressing HCT116 and HT29 cells were generated by lentiviral transduction of the cells with a CMV promoter-driven luciferase expression construct engineered from the pLL3.7 vector. […] Bioluminescence imaging was performed in a Xenogen imaging system to monitor tumor growth and the data were analyzed using Living Image software (Caliper LifeSciences). For the lung metastasis model using HT29 cells, lungs were harvested for bioluminescence imaging and then fixed in 10% neutral buffered formalin, paraffin embedded, sectioned, and stained with hematoxylin and eosin. A total of six lung sections at 100-μm intervals were collected for the observation of pulmonary nodules. […]

Data set [2] relates to ATM/ATR checkpoint pathway in HCT116 cells. The data set is described as follows: Western blot of ATM/ATR checkpoint pathway. The class given is cell-based, human. As for the experimental part:
Total cell lysates were collected at various time points for Western blot analysis to detect (A) ATM (Ser1981) and ATR (Ser428) phosphorylation and (B) ULBP2 expression. Data shown are representative of three independent experiments. […] Total cell lysates were prepared at various time points (with the same total protein concentration as determined by BCA protein assay) (0 h to 24 h) for phospho-Chk1 by ELISA. Data were expressed as fold change relative to the degree of Chk1 phosphorylation at 0 h (n=3). […] Data are representative of three independent experiments. […] Data are representative of three independent experiments. […] Data shown are representative of three independent experiments. (G) The knockdown efficiencies of various siRNAs in HCT116 cells were evaluated by Western blot analysis. Results are representative of three independent experiments. […] Data shown are representative of three independent experiments. * P<0.05, ** P<0.01, *** P<0.001.
Background: Immunoblotting shows a protein as a band on a membrane.

Data set [3] has as its system NKG2DL (MICA-B, ULBP1-3) surface expression. The data set can be described thus: flow cytometry of NKG2DL cell surface expression in cancer cell lines. In kind it is cell-based, human. As for the experimental part: Data are representative of five independent experiments. […] Controls were stained with APC-conjugated anti-human Fc antibody alone without preincubation with NKG2D-Fc. Data are representative of three independent experiments. […] Results are representative of two independent experiments. […] (E) NKG2DL mRNA expression in the colon cancer cell lines was analyzed by qRT-PCR analysis. Data are normalized to GAPDH mRNA levels and are presented as fold-change relative to the expression in DMSO-treated cells (n=5). (F) Lentiviral-based luciferase reporter construct containing the putative ULBP2 promoter (−2415 to 0 bp from the transcription start site: 73 bp upstream of ATG) was transduced into the colon cancer cell lines. Positively transduced cells were selected by puromycin treatment (2 μg/ml) for 2 weeks. […] Data shown are expressed as fold-change relative to the luciferase activity observed in DMSO-treated cells (n=3). * P<0.05, ** P<0.01.
Cell lines were stained with allophycocyanin-conjugated anti-MICA, anti-MICB, or anti-ULBP2 antibodies for 20 min at 4° C. For ULBP1 and ULBP3 staining, cells were first incubated with anti-ULBP1 and anti-ULBP3 antibodies and then with allophycocyanin-conjugated goat anti-mouse IgG antibody. To analyze total NKG2DL cell surface expression, cells were first incubated with human NKG2D-Fc for 20 min at 4° C. and then with allophycocyanin-conjugated mouse anti-human IgG (Fc) antibody. Cells were washed and analyzed on a C6 flow cytometer (Accuri). Data were analyzed using FlowJo software (TreeStar).
On the technique in general: A flow cytometer gives signals particle by particle.

The test system of data set [4] is RXR-gamma. The data set can be described thus: RXR-gamma reporter assay. The conditions noted are these: HCT116 cells. The class given is cell-based, human. Here is the method: The Cignal RXR reporter assay system containing an RXR-gamma-responsive luciferase construct, which encodes the firefly luciferase reporter gene under the control of a minimal CMV promoter and tandem repeats of the RXR-gamma transcriptional response element, was purchased from Qiagen. The experiment was performed in HCT116 cells according to the manufacturer's instructions.

The subject of data set [5] is colon cancer cell lines (NKL or primary NK cells as effectors). The data set can be described thus: NK cell cytotoxicity assay (BATDA release). In kind it is cell-based, human. As for the experimental part: (A) NKL cells express high level of NKG2D but not NKp30 on their cell surface as determined by flow cytometry. Results are representative of two independent experiments. Therefore, the use of anti-NKp30 in NKL killing assay described in 2 F below was considered as a non-specific IgG blockade relative to anti-NKG2D. […] (D) HCT116 cells transduced with control or a ULBP2-overexpressing lentiviral construct were analyzed by flow cytometry for the surface expression of ULBP2. Results are representative of two independent experiments. (E) NK cell cytotoxicity on the ULBP2-transduced HCT116 cells was determined by a BATDA release assay using NKL cells as effector cells (n=3). (F) DMSO- or SPIR-treated (3 days) HCT116 cells were subjected to a BATDA release assay using NKL cells in the presence or absence of anti-NKp30 or anti-NKG2D antibodies (10 μg/mL) (n=3). (G) DMSO- or SPIR-treated (3 days) HCT116 cells were subjected to a BATDA release assay using IL-2 (10 U/ml)-primed primary NK cells isolated from healthy donors at various E:T ratios in the presence or absence of anti-NKp30 or anti-NKG2D antibodies (10 μg/mL) (n=3). * P<0.05, ** P<0.005, *** P<0.0001.
The results were calculated as follows: […]

Data set [6] concerns DNA damage in HCT116 cells. The data set is described as follows: comet assay. In kind it is cell-based, human. As for the experimental part:
Experiments were performed according to the manufacturer's instructions.

For the compound `CC(=O)S[C@@H]1CC2=CC(=O)CC[C@]2(C)[C@H]2CC[C@@]3(C)[C@@H](CC[C@@]34CCC(=O)O4)[C@H]12` [SPIR, spironolactone], the lung metastasis result in data set [1] is reported as “significant reduction of lung metastasis”. Besides, the “ATM and ATR phosphorylation” value in data set [2] (HCT116, 56 μM, time-dependent) was “induces ATM and ATR phosphorylation”. Further, the “phosphorylated Chk2 and H2A.X” value in data set [2] (HCT116, 24 h) was “an increase was also detected”. Moreover, the ULBP2 expression entry in data set [3] (HCT116, HT29, SW480, HCT15, SPIR 56 μM, 3 days, dose-dependent) is listed as “significantly increased”. Also, in data set [3] (HCT116 cells, 56 μM, 3 days), the “expression of other NK cell ligands (CD112, CD155, Fas, HLAs)” value is “no increase in expression”. Besides, the ULBP1 expression result in data set [3] (SW480 and HCT15 cells) is listed as “selective increase”. The “MICA/B and ULBP3 expression” value in data set [3] (all SPIR-treated cells) is “enhancement”. Moreover, the “total NKG2DL expression by soluble NKG2D-Fc staining” value in data set [3] (colon cancer cell lines) is recorded as “Consistent NKG2DL upregulation”. Further, the “viability of the cells” value in data set [3] (colon cancer cell lines, SPIR treatment) was “without affecting the viability of the cells”. Further, the RXR-gamma-responsive luciferase activity entry in data set [4] (24 h) is “significantly increased”. Further, the RXR-gamma protein level entry in data set [4] (Western blot) is listed as “did not change”. In addition, the “susceptibility to primary NK cell-mediated lysis” value in data set [5] (HT29 and SW480 cells, IL-2-primed primary NK cells) is given as “markedly enhanced”. In addition, the “susceptibility to NKL lysis” value in data set [5] (all colon cancer cell lines, SPIR 56 μM) is recorded as “significantly increased”. In data set [6] (HCT116, 56 μM for 24 h), the DNA breakage entry is given as “moderate decrease in DNA breakage”. In data set [6] (conclusion from comet assays), the genotoxicity result was “not genotoxic”.
